Data reported in PubChem BioAssay (NCI).
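Growth conditions: 96-well plates. Treatment: test compound, 48 hours, 5 concentrations. Analysis: linear interpolation between bracketing concentrations; unreached endpoints set to highest concentration. Definition used: TGI = concentration required for complete inhibition of growth.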

What was measured:
Test in all cases: DTP human tumour cell line panel, 48 h
[1] = tested on: UO-31 renal
[2] = tested on: OVCAR-3 ovarian
[3] = tested on: NCI/ADR-RES ovarian
[4] = tested on: SK-MEL-2 melanoma
[5] = tested on: ACHN renal
[6] = tested on: A549 NSCLC
[7] = tested on: RPMI-8226 leukemia
[8] = tested on: SK-MEL-5 melanoma
[9] = tested on: SF-539 CNS
[10] = tested on: HS 578T breast

SMILES	TGI [1] [µM]	TGI [2] [µM]	TGI [3] [µM]	TGI [4] [µM]	TGI [5] [µM]	TGI [6] [µM]	TGI [7] [µM]	TGI [8] [µM]	TGI [9] [µM]	TGI [10] [µM]
O=C(/C=C/c1ccc(-c2ccccc2[N+](=O)[O-])o1)NCc1ccc(C(=O)NCCc2ccccc2)cc1	> 100	> 100	> 100	> 100	> 100	> 100	> 100	> 100	> 100	> 100
Cc1cc2ccccc2n1CC(=O)NCC(C)C	> 100	> 100	> 100	> 100	> 100	> 100	> 100	> 100	> 100	> 100
OC1CCCC1C(O)(C(F)(F)F)C(F)(F)F (stereo not given)	> 100	> 100	> 100	> 100	> 100	> 100	> 100	> 100	> 100	> 100
COC(=O)C(/C(=N/NC(=O)c1ccncc1)C(=O)Nc1ccccc1OC)c1nc2ccc(Cl)cc2[nH]c1=O (stereo not given)	> 100	> 100	> 100	> 100	> 100	> 100	> 100	> 100	> 100	> 100
CC[C@]12C=CCN3CCC4(c5cc(N=Nc6ccccc6)c(OC)cc5N(C)[C@H]4[C@@](O)(C(=O)OC)[C@@H]1OC(C)=O)[C@@H]32 (stereo not given in full)	29.8	28.1	55.6	31.4	30.1	40.9	59.3	44.2	48.3	39
Cn1c(=O)c2c(-c3ccccc3)onc2n(C)c1=O	> 100	53.1	> 100	81.8	> 100	> 100	57.6	> 100	> 100	75.6
CC(=O)N(CN1C(=O)CCC1C(=O)O)c1ccccc1 (stereo not given)	> 100	> 100	> 100	> 100	> 100	> 100	> 100	> 100	> 100	> 100
NC(N)=N/N=C/c1c(-c2ccc([N+](=O)[O-])cc2)nc2sccn12	6.13	2.89	> 100	3.33	7.27	3.34	28.3	7.98	3.34	4.14
C/C(=C/CO[Si](C)(C)C(C)(C)C)C(=O)N(C)c1ccccc1I	28	31.3	37.1	30.5	31	32.4	77.9	29	32.3	43.5
COc1ccc(/C=C/c2cc(O)cc(OC)c2)cc1	> 100	> 100	> 100	> 100	> 100	> 100	78.7	> 100	> 100	> 100
CS(=O)(=O)OCCN1CCC2(CC1)SSC1(CCN(CCOS(C)(=O)=O)CC1)S2	> 100	99.7	> 100	> 100	> 100	> 100	29.6	> 100	> 100	> 100
COc1ccc(C2(c3ccc(OC)cc3)OC(=O)c3cccc4cccc2c34)cc1	> 100	> 100	7.55	> 100	> 100	> 100	8.8	> 100	9.63	97.4
CCOC(=O)c1nc2c3c(ncn2n1)Oc1c(c(-c2ccccc2)nn1-c1ccccc1)C3c1ccc(Cl)cc1 (stereo not given)	> 100	> 100	> 100	> 100	> 100	> 100	> 100	> 100	> 100	> 100
C=CCC(CNC(=O)OCc1ccccc1)O[Si](C)(C)C(C)(C)C (stereo not given)	63.1	> 100	> 100	34.9	> 100	> 100	64.9	31.8	93.2	> 100
CC(C)CCC[C@@H](C)[C@H]1CC[C@H]2[C@@H]3CC=C4C[C@@H](OC(=O)c5cccc6c(=O)c7ccccc7[nH]c56)CC[C@]4(C)[C@H]3CC[C@]12C	> 75	> 75	> 75	> 75	> 75	> 75	> 75	> 75	> 75	> 75
